Assay results as given in patent US20140142155A1, “METHOD OF TREATING THROMBOCYTOPENIA” (GlaxoSmithKline LLC, priority 2008, published 2014).

Legend:
Solubility = type: physicochemical
healthy adult subjects = assay: QT/QTc double-blind placebo- and positive-controlled crossover trial; type: in vivo, human; settings: 400 mg, single oral dose
Protocol: The effects of Promacta® at doses up to 150 mg daily for 5 days (supratherapeutic doses) on the QT/QTc interval was evaluated in a double-blind, randomized, placebo- and positive-controlled (moxifloxacin 400 mg, single oral dose) crossover trial in healthy adult subjects.

Compound | solubility in water (Solubility) | solubility in aqueous buffer (Solubility; pH range of 1 to 7.4) | QTc effect of positive control (healthy adult subjects)
CC1=NN(c2ccc(C)c(C)c2)C(=O)/C1=N\Nc1cccc(-c2cccc(C(=O)O)c2)c1O.NCCO.NCCO [Eltrombopag olamine, 3′-{(2Z)-2-[1-(3,4-dimethylphenyl)-3-methyl-5-oxo-1,5-dihydro-4H-pyrazol-4-ylidene]hydrazino}-2′-hydroxy-3-biphenylcarboxylic acid-2-aminoethanol (1:2)] | sparingly soluble | practically insoluble | 
COc1c(N2C[C@@H]3CCCN[C@@H]3C2)c(F)cc2c(=O)c(C(=O)O)cn(C3CC3)c12 [moxifloxacin] |  |  | significant QTc prolongation
